# From US20190234926A1, “METHOD OF PREDICTING FLAVOR PERFORMANCE” (McCormick & Company, Incorporated, priority 2016, published 2019)
# Experiment: Polarity measured as dielectric constant with a dielectric constant meter
# Format: physicochemical
# Conditions: at 20° C., general statement
# From the text: Polar solvents such as water heat up in a microwave much faster than non-polar oils. Flavors heat up somewhere in between depending on their polarity. Dipolar moment of molecules of various liquids is different and can be a measure of polarity of liquids. The dipolar moment is responsible for interaction of molecules in a liquid with the electromagnetic field of a microwave oven. One measure of dipolar moment is dielectric constant. Thus, dielectric constant is a sound measure of flavor polarity and can predict flavor properties and flavor-matrix interaction whether during processing or in final target applications. An example of one commercially available dielectric constant meter useful with the method described herein is a model BI-870 from Brookhaven Instruments. It can measure dielectric constant not only at 20° C. but in a broad temperature range.
# In support of development of flavors, encapsulation technologies, and applications, dielectric constant of key solvents used in flavor formulation (Table 1) were measured and a variety of target flavors (Table 2). […] Dielectric constants of binary blends of components fall in the range between the dielectric constants of individual components.
row,SMILES,Dielectric constant
1,"O [Water deionized, Water]",about 80

# Same assay, conditions: flavor components and compounded flavors incl. listed solvent, at about 20° C.
row,SMILES,Dielectric constant
1,CC(=O)C(C)=O [Diacetyl],4.4

# Same assay, conditions: solvents, at about 20° C.
row,SMILES,Dielectric constant
1,OCc1ccccc1 [Benzyl alcohol],13.8
2,"CCO [Ethanol (95%), Ethanol]",28.3
3,OCC(O)CO [Glycerin],46.1
4,CC(C)O [Isopropanol],20.8
5,CC(O)CO (stereo not drawn) [Propylene glycol],28.7
6,CC(=O)OCC(COC(C)=O)OC(C)=O [Triacetin],7.0
7,"O [Water deionized, Water]",79.2
